Assay results: US20260256822A1, “ENTRY-MODULATING AGENTS AND USES THEREFOR” (priority 2022, published 2026)
Several values for one entry are separate records, joined by “and”; a condition that tells them apart may be missing. Equal values may be shown once. Where a name gives a salt, the structure may show the parent alone. Read-outs that look alike come from different tables or passages of the source.

Legend:
PfCyRPA [1] = biological target: T1, PfCyRPA (Plasmodium falciparum, UniProt Q8IFM8); format: binding; conditions: compound injected first, then 2-6SLN; both at 1 μM
Target sequence in this assay (Q8IFM8 29-362): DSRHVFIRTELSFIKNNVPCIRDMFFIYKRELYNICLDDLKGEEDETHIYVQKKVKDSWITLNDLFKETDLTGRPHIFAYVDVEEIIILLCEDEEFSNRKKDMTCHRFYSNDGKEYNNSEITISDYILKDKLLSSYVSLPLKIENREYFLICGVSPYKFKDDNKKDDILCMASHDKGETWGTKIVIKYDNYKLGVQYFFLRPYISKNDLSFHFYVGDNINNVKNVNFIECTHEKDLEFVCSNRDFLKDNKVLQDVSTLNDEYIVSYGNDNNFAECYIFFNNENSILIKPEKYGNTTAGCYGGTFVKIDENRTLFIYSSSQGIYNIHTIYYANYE

P. falciparum 3D7 clone = assay: In vitro blood stage parasite growth inhibition assay, [3H]-hypoxanthine incorporation, human red blood cells; format: cell-based, Plasmodium falciparum
PfCyRPA [2] = biological target: T1, PfCyRPA; assay: biochemical
Target sequence in this assay (Q8IFM8 29-362): as above

[3] = biological target: T2, New Delhi metallo-beta-lactamase 2 (NDM2) (Klebsiella pneumoniae, UniProt C7C422, P28A); assay: biochemical
PfCyRPA [4] = biological target: T1, PfCyRPA; conditions: for affinity of interaction with PfCyRPA: SPR
Target sequence in this assay (Q8IFM8 29-362): as above

[5] = biological target: T2, New Delhi metallo-beta-lactamase 2 (NDM2); conditions: read-out: NDM2 KD; Table 9
PvCyRPA = PvCyRPA (Plasmodium vivax, UniProt A5K678, A187P/D259E/E126K/E159D/E86Q/G127E/G69A/H95N/K131E/K185E/K93E/Q142K/R122K/T90K); format: binding; conditions: Table 12, PvCyRPA
PfCyRPA [6] = biological target: T1, PfCyRPA; conditions: SPR
Target sequence in this assay (Q8IFM8 26-362): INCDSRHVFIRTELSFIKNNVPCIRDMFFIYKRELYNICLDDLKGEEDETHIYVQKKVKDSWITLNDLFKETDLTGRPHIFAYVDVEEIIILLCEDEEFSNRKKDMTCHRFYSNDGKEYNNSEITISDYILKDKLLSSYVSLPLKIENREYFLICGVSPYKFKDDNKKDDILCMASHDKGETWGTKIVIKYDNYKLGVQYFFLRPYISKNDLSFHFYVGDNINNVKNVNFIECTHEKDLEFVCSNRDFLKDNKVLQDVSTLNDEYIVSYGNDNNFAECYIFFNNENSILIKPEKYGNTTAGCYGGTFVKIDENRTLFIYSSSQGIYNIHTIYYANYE

[7] = mice, 7 days post infection
Experimental: To determine the level of ZnPT in serum a methodology using two ZnPT binding proteins was developed.
(§1) Standard curves were run across the following concentrations: • ZnPT—0.61 nM to 10 μM • PT—61 nM to 1 mM • Zinc—0.61 μM to 10 mM

[8] = for Serum concentration of zinc pyrithione: human
Experimental: Participants were instructed to completely wet hair, measure out 20 mL of anti-dandruff shampoo using a measuring cup provided, pour shampoo onto the scalp and massage shampoo into the scalp, leave shampoo on for 5-10 minutes using the timer provided then completely rinse off shampoo. Blood and urine samples were also collected on day 3 (two days of shampoo use), day 4 (three days of shampoo use), day 5 (day after shampoo use stops) and day 10 (five days after shampoo use has stopped). Serum was separated from blood collected in SST II Advance serum separation tubes (BD) according to the manufacturer's instructions. Sera and urine were batched and stored at −80° C. within 4 hours of collection.
as §1
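For Serum concentration of zinc pyrithione in this document: human volunteers used 1% ZPT shampoo twice daily for three days from day 2, serum sampled on days 1 (pre-use), 3, 4, 5 and 10.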
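For day of the highest serum concentration of ZnPT in this document: human volunteers used 1% ZPT shampoo twice daily for three days from day 2, serum sampled on days 1 (pre-use), 3, 4, 5 and 10.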

T2 sequence (C7C422 29-270 P28A (numbered from the first residue shown)): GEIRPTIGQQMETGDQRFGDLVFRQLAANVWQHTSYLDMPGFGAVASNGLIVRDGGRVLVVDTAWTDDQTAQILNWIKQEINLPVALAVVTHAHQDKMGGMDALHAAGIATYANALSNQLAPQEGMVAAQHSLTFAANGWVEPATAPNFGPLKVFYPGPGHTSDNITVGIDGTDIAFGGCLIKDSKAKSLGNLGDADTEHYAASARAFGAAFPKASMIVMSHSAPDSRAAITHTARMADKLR

CC(O)C(=O)O.CCOc1ccc2nc3cc(N)ccc3c(N)c2c1 (racemic) [RIVANOL, 6,9-Diamino-2-ethoxyacridine-DL-lactate monohydrate]
Blocking of 2-6SLN binding (PfCyRPA [1]): 87.6% ± 9.7
EC50 (P. falciparum 3D7 clone; Plasmodium falciparum, 3D7, Erythrocyte, Table 8, human RBC, P. falciparum 3D7, read-out: EC50 in RBC infection): 0.019 µg/mL and 55.3 nM
concentration that completely inhibits P. falciparum infection of human RBCs (P. falciparum 3D7 clone; human RBC, monohydrate): 100 ng/mL and 291.1 nM
Kd (PfCyRPA [2]): 2.46 ± 0.41 nM

On1ccccc1=S [1-Hydroxy-2(1H)-pyridinethione]
Kd [3]: 894000 nM
Kd (PfCyRPA [2]): 169000 nM

O=C1CC2(CCCC2)CC(=O)N1CCCCN1CCN(c2ncccn2)CC1 [Buspirone hydrochloride]
Blocking of 2-6SLN binding (PfCyRPA [1]): 77.4% ± 8.2
Kd (PfCyRPA [2]): 33.6 ± 4.31 nM

CO[C@H]1C[C@H](O[C@H]2[C@H](C)O[C@@H](O[C@@H]3/C(C)=C/C[C@@H]4C[C@@H](C[C@]5(C=C[C@H](C)[C@@H](C6CCCCC6)O5)O4)OC(=O)[C@@H]4C=C(C)[C@@H](O)[C@H]5OC/C(=C\C=C\[C@@H]3C)[C@]54O)C[C@@H]2OC)O[C@@H](C)[C@@H]1O [Doramectin]
Kd (PfCyRPA [4]): 7040 ± 2030 nM

CCC(C)[C@H]1O[C@]2(CC[C@@H]1C)C[C@@H]1C[C@@H](C/C=C(\C)[C@@H](O[C@H]3C[C@H](OC)[C@@H](O[C@H]4C[C@@H](OC)[C@H](O)[C@@H](C)O4)[C@H](C)O3)[C@@H](C)/C=C/C=C3\CO[C@@H]4[C@H](O)C(C)=C[C@@H](C(=O)O1)[C@]34O)O2 (some centres unmarked) [Ivermectin]
affinity of interaction with PfCyRPA (PfCyRPA [4]): high affinity interaction
Blocking of 2-6SLN binding (PfCyRPA [1]): 67.3% ± 4.9
EC50 (P. falciparum 3D7 clone; Plasmodium falciparum, 3D7, Erythrocyte, human RBC, Example 6): 0.534 µg/mL
concentration that completely inhibits P. falciparum infection of human RBCs (P. falciparum 3D7 clone; human RBC): 2000 ng/mL and 2.29 μM
EC50 (P. falciparum 3D7 clone; read-out: EC50 in RBC infection, Table 7, human RBC, P. falciparum 3D7): 610 nM
Kd (PfCyRPA [2]): 93.2 ± 14 nM

CO/N=C1\C[C@]2(C[C@@H]3C[C@@H](C/C=C(\C)C[C@@H](C)/C=C/C=C4\CO[C@@H]5[C@H](O)C(C)=C[C@@H](C(=O)O3)[C@]45O)O2)O[C@H](/C(C)=C/C(C)C)[C@H]1C [Moxidectin]
Kd (PfCyRPA [2]): 13400 ± 521 nM

COc1ccc(CCC(=O)c2c(O)cc(O[C@@H]3O[C@H](CO)[C@@H](O)[C@H](O)[C@H]3O[C@@H]3O[C@@H](C)[C@H](O)[C@@H](O)[C@H]3O)cc2O)cc1O [Neohesperidin dihydrochalcone]
Kd (PfCyRPA [2]): 24.6 ± 1.45 nM

CCC(C)(C)C(=O)O[C@H]1C[C@@H](C)C=C2C=C[C@H](C)[C@H](CC[C@@H]3C[C@@H](O)CC(=O)O3)[C@H]21 [Simvastatin]
Kd (PfCyRPA [2]): 31.4 ± 2.24 nM

[O-][n+]1ccccc1S [Sodium Pyrithione]
Kd (PfCyRPA [4]; Table 3, PfCyRPA): 122000 nM
Kd (PfCyRPA [4]; read-out: CyRPA KD, Table 9): 122000 nM
Kd [5]: 789000 nM

O=S(=O)([O-])[O-].[Zn+2] [Zinc, Zinc sulfate]
Kd (PfCyRPA [4]; Table 3, PfCyRPA): 546000 nM
Kd (PfCyRPA [4]; read-out: CyRPA KD, Table 9): 546000 nM
Kd [5]: 317000 nM

Abamectin
Kd (PfCyRPA [4]): 19.1 ± 1.17 nM
Kd (PvCyRPA): 1140 ± 230 nM
Blocking of 2-6SLN binding (PfCyRPA [1]): 91.4% ± 6.8
EC50 in RBC infection (P. falciparum 3D7 clone; Table 7, human RBC, P. falciparum 3D7): 0.888 µg/mL
EC50 (P. falciparum 3D7 clone; Table 7, human RBC, P. falciparum 3D7, read-out: EC50 in RBC infection): 1000 nM
concentration that completely inhibits P. falciparum infection of human RBCs (P. falciparum 3D7 clone; human RBC): 4000 ng/mL and 4.50 μM

Emamectin
Kd (PfCyRPA [4]): > 100000 nM

Milbemycin
Kd (PfCyRPA [4]): 967 ± 57 nM

Neu5Ac-α-(2-6)-Gal-β-(1-4)-GlcNAc [α2-6-SLN-Ac]
glycan ligand affinity for PfCyRPA (PfCyRPA [6]): highest affinity ligand

Zinc Pyrithione
Serum concentration at the point of testing [7]: < 163 ng/mL
Kd (PfCyRPA [4]): 0.833 ± 0.192 nM
affinity of interaction with PfCyRPA (PfCyRPA [4]): high affinity interaction
Kd (PfCyRPA [4]; Table 3, PfCyRPA): 0.833 nM
Kd (PfCyRPA [4]; read-out: CyRPA KD, Table 9): 0.833 nM
Kd [5]: 38.5 nM
Kd (PvCyRPA): 50.8 ± 2.91 nM
Blocking of 2-6SLN binding (PfCyRPA [1]): 98.2% ± 3.4
Serum concentration of zinc pyrithione ([8]; Serum 1, Day 1 (before shampoo use)): 0.03 μM ±
Serum concentration of zinc pyrithione ([8]; Serum 1, Day 3, topical 1% ZPT shampoo): 0.04 μM ±
Serum concentration of zinc pyrithione ([8]; Serum 1, Day 4, topical 1% ZPT shampoo): 0.66 μM ±
Serum concentration of zinc pyrithione ([8]; Serum 1, Day 5, topical 1% ZPT shampoo): 2.7 μM ±
Serum concentration of zinc pyrithione ([8]; Serum 1, Day 10, topical 1% ZPT shampoo): −0.07 μM ±
Serum concentration of zinc pyrithione ([8]; Serum 2, Day 1 (before shampoo use)): 0.02 μM ±
Serum concentration of zinc pyrithione ([8]; Serum 2, Day 3, topical 1% ZPT shampoo): 0.88 μM ±
Serum concentration of zinc pyrithione ([8]; Serum 2, Day 4, topical 1% ZPT shampoo): 1.8 μM ±
Serum concentration of zinc pyrithione ([8]; Serum 2, Day 5, topical 1% ZPT shampoo): 4.3 μM ±
Serum concentration of zinc pyrithione ([8]; Serum 2, Day 10, topical 1% ZPT shampoo): 0.33 μM ±
Serum concentration of zinc pyrithione ([8]; Serum 3, Day 1 (before shampoo use)): 0.08 μM ±
Serum concentration of zinc pyrithione ([8]; Serum 3, Day 3, topical 1% ZPT shampoo): 0.24 μM ±
Serum concentration of zinc pyrithione ([8]; Serum 3, Day 4, topical 1% ZPT shampoo): 0.84 μM ±
Serum concentration of zinc pyrithione ([8]; Serum 3, Day 5, topical 1% ZPT shampoo): 1.6 μM ±
Serum concentration of zinc pyrithione ([8]; Serum 3, Day 10, topical 1% ZPT shampoo): 1.0 μM ±
Serum concentration of zinc pyrithione ([8]; Serum 4, Day 1 (before shampoo use)): 0.03 μM ±
Serum concentration of zinc pyrithione ([8]; Serum 4, Day 3, topical 1% ZPT shampoo): 0.81 μM ±
Serum concentration of zinc pyrithione ([8]; Serum 4, Day 4, topical 1% ZPT shampoo): 1.0 μM ±
Serum concentration of zinc pyrithione ([8]; Serum 4, Day 5, topical 1% ZPT shampoo): 1.5 μM ±
Serum concentration of zinc pyrithione ([8]; Serum 4, Day 10, topical 1% ZPT shampoo): 1.2 μM ±
Serum concentration of zinc pyrithione ([8]; Serum 5, Day 1 (before shampoo use)): 0.01 μM ±
Serum concentration of zinc pyrithione ([8]; Serum 5, Day 3, topical 1% ZPT shampoo): 0.02 μM ±
Serum concentration of zinc pyrithione ([8]; Serum 5, Day 4, topical 1% ZPT shampoo): 0.10 μM ±
Serum concentration of zinc pyrithione ([8]; Serum 5, Day 5, topical 1% ZPT shampoo): 0.22 μM ±
Serum concentration of zinc pyrithione ([8]; Serum 5, Day 10, topical 1% ZPT shampoo): 0.02 μM ±
Serum concentration of zinc pyrithione ([8]; Serum 6, Day 1 (before shampoo use)): 0.001 μM ±
Serum concentration of zinc pyrithione ([8]; Serum 6, Day 3, topical 1% ZPT shampoo): 0.10 μM ±
Serum concentration of zinc pyrithione ([8]; Serum 6, Day 4, topical 1% ZPT shampoo): 0.21 μM ±
Serum concentration of zinc pyrithione ([8]; Serum 6, Day 5, topical 1% ZPT shampoo): 0.38 μM ±
Serum concentration of zinc pyrithione ([8]; Serum 6, Day 10, topical 1% ZPT shampoo): 0.007 μM ±
Serum concentration of zinc pyrithione ([8]; Serum 7, Day 1 (before shampoo use)): 0.01 μM ±
Serum concentration of zinc pyrithione ([8]; Serum 7, Day 3, topical 1% ZPT shampoo): 0.84 μM ±
Serum concentration of zinc pyrithione ([8]; Serum 7, Day 4, topical 1% ZPT shampoo): 0.96 μM ±
Serum concentration of zinc pyrithione ([8]; Serum 7, Day 5, topical 1% ZPT shampoo): 1.5 μM ±
Serum concentration of zinc pyrithione ([8]; Serum 7, Day 10, topical 1% ZPT shampoo): 1.2 μM ±
Serum concentration of zinc pyrithione ([8]; Serum 8, Day 1 (before shampoo use)): 0.02 μM ±
Serum concentration of zinc pyrithione ([8]; Serum 8, Day 3, topical 1% ZPT shampoo): 0.02 μM ±
Serum concentration of zinc pyrithione ([8]; Serum 8, Day 4, topical 1% ZPT shampoo): 0.09 μM ±
Serum concentration of zinc pyrithione ([8]; Serum 8, Day 5, topical 1% ZPT shampoo): 0.26 μM ±
Serum concentration of zinc pyrithione ([8]; Serum 8, Day 10, topical 1% ZPT shampoo): 0.11 μM ±
Serum concentration of zinc pyrithione ([8]; Serum 9, Day 1 (before shampoo use)): 0.04 μM ±
Serum concentration of zinc pyrithione ([8]; Serum 9, Day 3, topical 1% ZPT shampoo): 0.22 μM ±
Serum concentration of zinc pyrithione ([8]; Serum 9, Day 4, topical 1% ZPT shampoo): 0.30 μM ±
Serum concentration of zinc pyrithione ([8]; Serum 9, Day 5, topical 1% ZPT shampoo): 0.49 μM ±
Serum concentration of zinc pyrithione ([8]; Serum 9, Day 10, topical 1% ZPT shampoo): 0.14 μM ±
Serum concentration of zinc pyrithione ([8]; Serum 10, Day 1 (before shampoo use)): 0.004 μM ±
Serum concentration of zinc pyrithione ([8]; Serum 10, Day 3, topical 1% ZPT shampoo): 0.15 μM ±
Serum concentration of zinc pyrithione ([8]; Serum 10, Day 4, topical 1% ZPT shampoo): 1.1 μM ±
Serum concentration of zinc pyrithione ([8]; Serum 10, Day 5, topical 1% ZPT shampoo): 1.5 μM ±
Serum concentration of zinc pyrithione ([8]; Serum 10, Day 10, topical 1% ZPT shampoo): 0.98 μM ±
day of the highest serum concentration of ZnPT ([8]; day after three consecutive days of topical treatment): 5 days
EC50 in RBC infection (P. falciparum 3D7 clone; Table 6, human RBC, P. falciparum 3D7, listed as ZnPT): 0.163 µg/mL
EC50 (P. falciparum 3D7 clone; Table 6, human RBC, P. falciparum 3D7, read-out: EC50 in RBC infection): 513 nM
concentration that completely inhibits P. falciparum infection of human RBCs (P. falciparum 3D7 clone; human RBC, listed as ZnPT): 500 ng/mL and 1.57 μM
